According to US20200339691A1, “PROTEINACEOUS MOLECULES AND USES THEREFOR” (priority 2018, published 2020):
Where a SMILES comes first, the peptide text is derived from it. The star is where a group is joined. Myristoyl = CCCCCCCCCCCCCC(=O)*

Assays:
PD-L1 [1] = experiment: Immunofluorescence of PD-L1 in MDA-MB-231 cells, Example 9; type: cell-based, human; conditions: 50 μM, 72 hours
Method: (§1) 1×10^4 MDA-MB-231 cells were seeded onto coverslips in 12 well plates with DMEM media. Cells were treated with 50 μM P1, P2, P3 or P4 (synthesized in accordance with Example 5) or vehicle (water) for 72 hours. Cells were fixed with 3.7% formaldehyde and permeabilized with 2% Triton-X-100, then probed with primary mouse antibodies to CSV, DMNT1, H3K9me3 or 5-methylcytosine; primary goat antibodies to SNAI1, SETDB1 or ABCB5; or primary rabbit antibodies to PD-L1, EGFR, EHMT2; followed by the corresponding secondary antibody conjugated to anti-mouse Alexa-Fluor 568, anti-goat Alexa-Fluor 633 or anti-rabbit Alexa-Fluor 488. Confocal laser scanning microscopy was used to measure the TFI, TNFI and TCFI as described above. At least 20 individual cells were analyzed per sample.

EHTM2 = experiment: Immunofluorescence of EHTM2 in MDA-MB-231 cells; type: cell-based, human; conditions: 50 μM, 72 hours
Method: Cells were treated with 50 μM P1, P2, P3 or P4 (synthesized in accordance with Example 5) or vehicle (water) for 72 hours. […] Confocal laser scanning microscopy was used to measure the […] and TCFI as described above. At least 20 individual cells were analyzed per sample.

MCF7 cells = conditions: MCF7 cells, 50 μM peptide, 48 hours
Method: P1 Analogues were synthesized in accordance with the procedure of Example 5. 4×10^4 MDA-MB-231 cells or 1×10^4 induced or non-induced MCF7 cells were seeded in a 12 well plate with 1 mL complete media overnight. Induced MCF7 cells were prepared by stimulating cells with PMA/TGF-β and incubating for 12 hours. Cells were treated with 50 μM test peptide (dissolved in water) for 48 hours. Cells were then washed twice with 1 mL PBS and harvested by trypsinisation. Non-adherent cells were removed during the washing steps. Adherent cells were collected, and were subsequently stained with anti-human CD44, CD24 and Hoechst 33342 antibodies on ice for 30 mins. FACS was performed on BD FACS LSRII to measure the percentage of CD44^hiCD24^lo CSCs by dividing CD44^hiCD24^lo events by total live cell counts (Hoechst negative population) (as described in Fillmore and Kuperwasser (2007) Breast Cancer Res, 9: 303). The percentage of viable cells was calculated by dividing total live cell events by total single cells as described previously (Siemann and Keng (1986), Cancer Res, 46: 3556-3559).

PD-L2 = experiment: Immunofluorescence of PD-L2 in MDA-MB-231 cells; type: cell-based, human; conditions: 50 μM, 72 hours, relative to the control
Method: (§2) 1×10^4 MDA-MB-231 cells were treated with 50 μM P1, P2, P3 (synthesized in accordance with Example 5) or vehicle (water) for 72 hours. Cells were fixed with 3.7% formaldehyde and permeabilized with 2% Triton-X-100, then probed with a primary rabbit antibody to PD-L2, primary goat antibody to PD-L1 and primary mouse antibody to CSV, followed by the corresponding secondary antibody conjugated to anti-mouse Alexa-Fluor 568, anti-goat Alexa-Fluor 633 or anti-rabbit Alexa-Fluor 488. Confocal laser scanning microscopy was used to measure the TNFI and TCFI as described above. At least 20 individual cells were analyzed per sample.

[2] = test system: PD-L1 acetylated at lysine 263; experiment: Immunofluorescence (confocal) of acetylated PD-L1 in MDA-MB-231 cells, Example 6; type: cell-based, human; conditions: 50 μM, 72 hours
Method: (§3) Confocal laser scanning microscopy was employed to investigate the effect of P1, P2 and P3 (synthesized in accordance with Example 5) on the nuclear expression of PD-L1 and acetylated PD-L1 (PDL1-Ac) (FIG. 9).
(§4) 1×10^4 MDA-MB-231 cells were seeded onto coverslips in 12 well plates with DMEM media overnight. Cells were treated with 50 μM P1, P2, P3 or P4 or vehicle (water) for 72 hours. Treated cells were fixed with 3.7% formaldehyde, and then permeabilised by incubating with 1% Triton X-100 for 20 min. Cells were then probed with a rabbit anti-PD-L1 antibody (Santa Cruz Biotechnology) or rabbit anti-acetylated PD-L1 (generated as described above) and visualized with a donkey anti-rabbit AF 488. Cover slips were mounted on glass microscope slides with ProLong Diamond Antifade reagent (Life Technologies). Protein targets were localized using confocal laser scanning microscopy. Single 0.5 μm sections were obtained using a Leica DMI8 microscope using 100× oil immersion lens running LAX software. The final image was obtained by averaging four sequential images of the same section. Digital images were analyzed using ImageJ software as described above.

MDA-MB-231 cells = conditions: 72 h
Method: The effect of P1, P2 and P3 (synthesized in accordance with Example 5) on MDA-MB-231 cell proliferation was assessed using a WST-1 proliferation assay.
MCF7 cells were transfected with a plasmid containing the wild-type PD-L1 sequence, a plasmid containing a PD-L1 [K263Q] mutant (Mut1) or vector only (VO) using the NEON electroporation transfection system (Life Technologies). Transfected cells were used for the colorimetric based WTS-1 proliferation assay (Sigma-Aldrich) to examine the effect of transfection on MCF7 cell proliferation. The WTS-1 proliferation assay was also used to determine the effect of treatment with P1, P2 and P3 (synthesized in accordance with Example 5) on MDA-MB-231 cell proliferation. The stable tetrazolium salt WST-1 is cleaved to a soluble formazan by a complex cellular mechanism that occurs primarily at the cell surface. This bioreduction is largely dependent on the glycolytic production of NAD(P)H in viable cells. Therefore, the amount of formazan dye formed directly correlates to the number of metabolically active cells in the culture. Cells grown in a 96-well tissue culture plate were treated with vehicle only or 6.25, 12.5, 25, 50, 100, 200 or 400 μM of P1, P2 or P3 for 72 hours at 37° C. in a humidified CO2 incubator. Cells were then incubated with the WST-1 reagent for 0.5-4 hours. Following incubation, the formazan dye formed is quantitated with a scanning multi-well spectrophotometer (ELISA reader). The measured absorbance directly correlates to the number of viable cells.

SNAI1 = experiment: Immunofluorescence of SNAI1 in MDA-MB-231 cells; type: cell-based, human; conditions: 50 μM, 72 hours
Method: as §1

PD-L1 [3] = experiment: Immunofluorescence (confocal) of PD-L1 in MDA-MB-231 cells, Example 6; type: cell-based, human; conditions: 50 μM, 72 hours
Method: as §3, §4

[4] = test system: cell surface vimentin (CSV); experiment: Immunofluorescence of CSV in MDA-MB-231 cells, Example 14; type: cell-based, human; conditions: 50 μM, 72 hours
Method: as §2

ABCBS = experiment: Immunofluorescence of ABCBS in MDA-MB-231 cells; type: cell-based, human; conditions: 50 μM, 72 hours
Method: as §1

H3K9me3 = experiment: Immunofluorescence of H3K9me3 in MDA-MB-231 cells; type: cell-based, human; conditions: 50 μM, 72 hours
Method: as §1

5-methylcytosine = experiment: Immunofluorescence of 5-methylcytosine in MDA-MB-231 cells; type: cell-based, human; conditions: 50 μM, 72 hours
Method: as §1

SMILES	PD-L1 nuclear localization (PD-L1 [1])	expression / localization of EHTM2 (EHTM2)	% Viable Cells (MCF7 cells)	COI Count (MCF7 cells)	COI/Single Cell Count (MCF7 cells)	COI/Single Cells/Live Count (MCF7 cells)	Total Count (MCF7 cells)	PD-L2 nuclear localization (PD-L2)	Fn/c of acetylated PD-L1 [2]	total nuclear fluorescence intensity (TNFI) of acetylated PD-L1 [2]	IC50 (MDA-MB-231 cells)	expression of SNAI1 (SNAI1)	nuclear expression of PD-L1 (PD-L1 [3])	CSV expression [4]	expression of ABCBS (ABCBS)	expression of H3K9me3 (H3K9me3)	expression of 5-methylcytosine (5-methylcytosine)
CCCCCCCCCCCCCC(=O)N[C@@H](CC(C)C)C(=O)N[C@H](C(=O)N[C@@H](Cc1ccccc1)C(=O)N[C@H](C(=O)N[C@@H](Cc1ccccc1)C(=O)N[C@@H](CCCNC(=N)N)C(=O)N[C@@H](CC(C)C)C(=O)N[C@@H](CCCNC(=N)N)C(=O)N[C@@H](CCCCN)C(=O)NCC(=O)N[C@@H](CCCNC(=N)N)C(=O)N[C@@H](CCSC)C(=O)N[C@@H](CCSC)C(=O)N[C@@H](CC(=O)O)C(=O)N[C@H](C(=O)N[C@@H](CCCCN)C(=O)N[C@@H](CCCCN)C(N)=O)C(C)C)[C@@H](C)CC)[C@@H](C)O [Peptide P1, Myristoyl-LTFIFRLRKGRMMDVKK-NH2] (Myristoyl-LTFIFRLRKGRMMDVKK-NH2)	significantly inhibited	significantly abrogated	95.65%	6567	5585	5342	10000	significantly inhibited	significantly reduced	significantly reduced	103 µM	uniformly inhibited	inhibited	significantly inhibited	–	–	–
CCCCCCCCCCCCCC(=O)N[C@@H](CC(C)C)C(=O)N[C@H](C(=O)N[C@@H](Cc1ccccc1)C(=O)N[C@H](C(=O)N[C@@H](Cc1ccccc1)C(=O)N[C@@H](CCCNC(=N)N)C(=O)N[C@@H](CC(C)C)C(=O)N[C@@H](CCCNC(=N)N)C(=O)N[C@@H](CCC(N)=O)C(=O)NCC(=O)N[C@@H](CCCNC(=N)N)C(=O)N[C@@H](CCSC)C(=O)N[C@@H](CCSC)C(=O)N[C@@H](CC(=O)O)C(=O)N[C@H](C(=O)N[C@@H](CCCCN)C(=O)N[C@@H](CCCCN)C(N)=O)C(C)C)[C@@H](C)CC)[C@@H](C)O [Peptide P2, Myristoyl-LTFIFRLRQGRMMDVKK-NH2] (Myristoyl-LTFIFRLRQGRMMDVKK-NH2)	significantly inhibited	significantly abrogated	97.19%	5603	4482	4356	10000	significantly inhibited	significantly reduced	significantly reduced	564 µM	uniformly inhibited	inhibited	significantly inhibited	–	–	–
CCCCCCCCCCCCCC(=O)N[C@@H](CC(C)C)C(=O)N[C@H](C(=O)N[C@@H](Cc1ccccc1)C(=O)N[C@H](C(=O)N[C@@H](Cc1ccccc1)C(=O)N[C@@H](CCCNC(=N)N)C(=O)N[C@@H](CC(C)C)C(=O)N[C@@H](CCCNC(=N)N)C(=O)N[C@@H](CCCCNC(C)=O)C(=O)NCC(=O)N[C@@H](CCCNC(=N)N)C(=O)N[C@@H](CCSC)C(=O)N[C@@H](CCSC)C(=O)N[C@@H](CC(=O)O)C(=O)N[C@H](C(=O)N[C@@H](CCCCN)C(=O)N[C@@H](CCCCN)C(N)=O)C(C)C)[C@@H](C)CC)[C@@H](C)O [Peptide P3, Myristoyl-LTFIFRLRK(Ac)GRMMDVKK-NH2] (Myristoyl-LTFIFRLRK(Ac)GRMMDVKK-NH2)	significantly inhibited	significantly abrogated	98.47%	6007	5039	4962	10000	significantly inhibited	significantly reduced	significantly reduced	542 µM	uniformly inhibited	inhibited	significantly inhibited	strongly inhibited	strongly inhibited	strongly inhibited
